The results in this text go back to ChEMBL document CHEMBL4184249, “Structural development of tetrachlorophthalimides as liver X receptor β (LXRβ)-selective agonists with improved aqueous solubility” (Bioorg Med Chem Lett, 2018).

In brackets after ≈: the same amount, converted by molar mass. Activity calls are given as the source filed them. The calls are words filed in the database; no cut-off is given here.

Series [1] deals with T1, Oxysterols receptor LXR-beta (Mus musculus, UniProt Q60644).
T1 sequence (Q60644 whole entry): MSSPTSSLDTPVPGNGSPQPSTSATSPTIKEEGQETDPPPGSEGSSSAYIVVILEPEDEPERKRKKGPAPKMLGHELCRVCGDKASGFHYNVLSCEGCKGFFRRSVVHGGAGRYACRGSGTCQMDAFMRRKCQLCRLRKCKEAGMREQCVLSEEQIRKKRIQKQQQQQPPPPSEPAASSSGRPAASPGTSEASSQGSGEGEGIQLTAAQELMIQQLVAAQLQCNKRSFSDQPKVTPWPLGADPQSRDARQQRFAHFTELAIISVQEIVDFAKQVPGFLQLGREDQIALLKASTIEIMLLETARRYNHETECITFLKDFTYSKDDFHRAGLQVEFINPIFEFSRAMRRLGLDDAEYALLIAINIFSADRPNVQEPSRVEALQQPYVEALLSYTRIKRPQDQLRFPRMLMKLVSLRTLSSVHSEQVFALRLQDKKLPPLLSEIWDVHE
Description: Agonist activity at mouse LXRbeta expressed in HEK293 cells co-expressing CMX-beta-galactosidase incubated for 16 hrs by luciferase reporter gene assay. In kind it is cell-based. For orientation: In a reporter assay the amount or activity of a reporter protein is the signal.

Series [2] has as its target T2, Retinoic acid receptor RXR-alpha (Homo sapiens) (UniProt P19793).
T2 sequence (whole entry): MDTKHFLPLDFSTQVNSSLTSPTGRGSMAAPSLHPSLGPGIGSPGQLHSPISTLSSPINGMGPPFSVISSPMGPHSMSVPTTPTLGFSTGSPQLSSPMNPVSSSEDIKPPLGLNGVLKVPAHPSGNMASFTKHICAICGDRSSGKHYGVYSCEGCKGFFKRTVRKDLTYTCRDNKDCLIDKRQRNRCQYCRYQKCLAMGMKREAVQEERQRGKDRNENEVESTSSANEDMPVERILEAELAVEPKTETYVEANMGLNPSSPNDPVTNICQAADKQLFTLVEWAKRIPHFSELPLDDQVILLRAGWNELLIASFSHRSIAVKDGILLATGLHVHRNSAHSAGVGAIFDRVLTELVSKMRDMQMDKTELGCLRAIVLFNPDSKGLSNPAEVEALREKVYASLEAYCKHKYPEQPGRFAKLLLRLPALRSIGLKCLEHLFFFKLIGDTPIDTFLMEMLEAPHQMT
Description: Agonist activity at GAL4-tagged RXRalpha (unknown origin) expressed in HEK293 cells co-expressing CMX-beta-galactosidase at 0.3 to 30 uM incubated for 16 hrs by luciferase reporter gene assay. It counts as cell-based.

Series [3] concerns the target T3, Retinoic acid receptor RXR-beta (Homo sapiens) (UniProt P28702).
T3 sequence (whole entry): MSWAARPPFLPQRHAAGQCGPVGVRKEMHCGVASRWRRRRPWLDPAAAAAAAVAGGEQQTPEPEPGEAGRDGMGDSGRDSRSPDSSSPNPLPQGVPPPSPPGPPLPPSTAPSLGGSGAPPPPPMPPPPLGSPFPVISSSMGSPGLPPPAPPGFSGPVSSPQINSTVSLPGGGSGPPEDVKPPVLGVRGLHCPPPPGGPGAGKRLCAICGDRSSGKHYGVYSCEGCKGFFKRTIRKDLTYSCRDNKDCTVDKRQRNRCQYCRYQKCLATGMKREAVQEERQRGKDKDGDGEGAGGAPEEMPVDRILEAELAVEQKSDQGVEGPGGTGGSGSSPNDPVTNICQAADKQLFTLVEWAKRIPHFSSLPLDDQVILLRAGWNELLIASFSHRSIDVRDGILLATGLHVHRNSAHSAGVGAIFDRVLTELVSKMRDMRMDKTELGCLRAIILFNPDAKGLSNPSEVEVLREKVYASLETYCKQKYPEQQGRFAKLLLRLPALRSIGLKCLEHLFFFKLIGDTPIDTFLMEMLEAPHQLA
Description: Agonist activity at GAL4-tagged RXRbeta (unknown origin) expressed in HEK293 cells co-expressing CMX-beta-galactosidase at 0.3 to 30 uM incubated for 16 hrs by luciferase reporter gene assay. It counts as cell-based.

The target of series [4] is T4, Retinoic acid receptor RXR-gamma (Homo sapiens) (UniProt P48443).
T4 sequence (whole entry): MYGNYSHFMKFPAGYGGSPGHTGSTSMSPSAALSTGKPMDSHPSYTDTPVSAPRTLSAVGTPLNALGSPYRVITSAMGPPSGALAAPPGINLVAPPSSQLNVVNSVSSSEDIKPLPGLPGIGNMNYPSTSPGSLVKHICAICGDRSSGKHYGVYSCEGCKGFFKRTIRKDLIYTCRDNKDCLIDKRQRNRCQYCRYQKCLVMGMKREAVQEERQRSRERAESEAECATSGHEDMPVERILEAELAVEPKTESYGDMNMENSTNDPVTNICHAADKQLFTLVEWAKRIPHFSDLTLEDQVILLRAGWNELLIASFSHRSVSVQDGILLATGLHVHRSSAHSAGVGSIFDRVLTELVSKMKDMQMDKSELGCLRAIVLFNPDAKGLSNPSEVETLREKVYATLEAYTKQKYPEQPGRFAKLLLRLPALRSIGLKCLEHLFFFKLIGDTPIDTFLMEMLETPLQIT
Description: Agonist activity at GAL4-tagged RXRgamma (unknown origin) expressed in HEK293 cells co-expressing CMX-beta-galactosidase at 0.3 to 30 uM incubated for 16 hrs by luciferase reporter gene assay. In kind it is cell-based.

Series [5] addresses T5, Oxysterols receptor LXR-alpha (Homo sapiens) (UniProt Q13133).
T5 sequence (whole entry): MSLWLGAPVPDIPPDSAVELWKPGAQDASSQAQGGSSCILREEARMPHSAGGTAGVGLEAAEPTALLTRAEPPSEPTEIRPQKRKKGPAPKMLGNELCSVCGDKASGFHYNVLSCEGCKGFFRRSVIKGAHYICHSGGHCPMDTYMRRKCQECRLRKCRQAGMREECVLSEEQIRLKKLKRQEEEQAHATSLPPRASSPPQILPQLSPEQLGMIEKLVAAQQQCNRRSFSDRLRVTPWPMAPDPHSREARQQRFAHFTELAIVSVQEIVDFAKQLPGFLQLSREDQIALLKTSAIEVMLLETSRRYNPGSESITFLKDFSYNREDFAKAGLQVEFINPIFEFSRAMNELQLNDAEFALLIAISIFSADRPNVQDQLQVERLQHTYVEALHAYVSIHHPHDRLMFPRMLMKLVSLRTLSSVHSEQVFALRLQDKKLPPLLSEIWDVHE
Description: Agonist activity at LXRalpha ligand-binding domain (unknown origin) at 0.3 uM incubated for 1.5 hrs using fluorescein-labeled coactivator peptide by TR-FRET competitive binding assay relative to T0901317. Background: In TR-FRET formats the signal depends on donor and acceptor labels being close together.

Series [6] in a line: Aqueous solubility of the compound in EtOH: 1/15 M phosphate buffer at pH 7.4 1:1 by HPLC method. In kind it is physicochemical.

As for `O=C1c2c(Cl)c(Cl)c(Cl)c(Cl)c2C(=O)N1c1ccccc1/C=C/c1cccs1`, in series [1], the EC50 (in general, the concentration needed to bring the measured effect to its halfway point) stood at 790 nM. For the same compound, the outcome in series [2], in series [3] and in series [4] was inactive. The compound also gave an Efficacy in series [5] of 6%. In series [6], the solubility (in general, the dissolved amount per volume that the medium holds) stood at 0.015 µg/mL (≈ 0.032 µM).
